For 14 compounds, IC50 results are on record in patent US20260176265A1 (Cancer Research Technology Limited, priority 2022, published 2026).

Test [1] has as its target CtermHisTag-mEGFR Triple Mutant - C797S, L858R, T790M (Homo sapiens, UniProt P00533, C797S/L858R/T790M). The test is described as follows: TR-FRET probe displacement assay, EGFR triple mutant. It is filed as binding. The settings on record: T790M 1.25 nM, probe 100 nM, 30 mins room temperature. As to the method:
(§1) Compounds (dissolved to 100 mM in DMSO) were dispensed into black low volume 384 well assay plates (Corning) over a final concentration range of 100000, 30000, 10000, 3000, 1000, 300, 100, 30, 10, and 3 nM using an Echo 550 (Labcyte). Positive control compound and DMSO as a negative control were dispensed into the first and last well, respectively. […]. Plates were read using a PheraStar FS (BMG Labtech) at Ex337 nm Ex490/520 nm. The data were analysed using Graphpad Prism/Dotmatics Studies Software. Assays conducted in technical replicate and repeated as a biological duplicate.
(In TR-FRET formats the signal depends on donor and acceptor labels being close together.)

In test [2] the target is CtermHisTag-mEGFR Wild type (Homo sapiens, UniProt P00533). The test is described as follows: TR-FRET probe displacement assay, EGFR wild type. The settings on record: EGFR wild type 1.25 nM, probe 100 nM, 30 mins room temperature. It is filed as binding. As for the experimental part: as §1
Test [3] concerns the target T1, Phospho-EGFR (Tyr1068) in H1975 cells (Homo sapiens, UniProt P00533, L858R/T790M).
T1 construct: host or cells: H1975
The test is described as follows: HTRF pEGFR/total EGFR assay in H1975 cells. Format: cell-based. To be noted: compound 3 hours, ratio pEGFR/total EGFR. As for the experimental part:
H1975 cells (ATCC CRL-5908) were plated at 20,000 cells per well in 96 well plates and placed at 37° C. 5% CO2. Once adhered (after 24h) cells were treated with compounds dissolved in DMSO at a final concentration of 0.1% DMSO in media. Compounds were diluted in media then added to cells for 3 hours in duplicate. Compound and media were removed from the cells, then 50ul of HTRF lysis buffer is added (lysis buffer was diluted from 4× stock to 1× in DI water, with 1% blocking agent also added). Cells were lysed on a plate shaker (2000 rpm) for 30 minutes at room temperature. pEGFR expression was monitored using the Cisbio Phospho-EGFR (Tyri068) cellular kit (64EG1 PEH). Total EGFR expression was monitored using the Cisbio Total EGFR cellular kit (64NG1 PEH) as per manufacturer's instructions. Fluorescence emission was read at two different wavelengths (665 nm and 620 nm) on a PheraStar. Results were calculated as ratio of pEGFR/total EGFR and then percentage of 0 uM control.

The target of test [4] is T2, Phospho-EGFR (Tyr1068) in H1975 C797S cells (Homo sapiens, UniProt P00533, C797S/L858R/T790M).
T2 construct: endogenous in cells; host or cells: H1975 C797S (CRISPR-edited in house from ATCC CRL-5908)
The test is described as follows: HTRF pEGFR/total EGFR assay in H1975 C797S cells. Format: cell-based. To be noted: H1975 C797S cells (CRISPR), compound 3 hours, ratio pEGFR/total EGFR. As for the experimental part: H1975 C797S cells (ATCC CRL-5908) were genetically engineered by CRISPR editing of EGFR C797S in house and validated by NGS. Cells were plated at 20,000 cells per well in 96 well plates and placed at 37° C. 5% CO2. Once adhered (after 24h) cells were treated with compounds dissolved in DMSO at a final concentration of 0.1% DMSO in media. Compounds were diluted in media then added to cells for 3 hours in duplicate. Compound and media were removed from the cells, then 50 ul of HTRF lysis buffer was added (lysis buffer was diluted from 4× stock to 1× in DI water, with 1% blocking agent also added). Cells were lysed on a plate shaker (2000 rpm) for 30 minutes at room temperature. pEGFR expression was monitored using the Cisbio Phospho-EGFR (Tyr1068) cellular kit (64EG1PEH). Total EGFR expression was monitored using the Cisbio Total EGFR cellular kit (64NG1PEH) as per manufacturer's instructions. Fluorescence emission was read at two different wavelengths (665 nm and 620 nm) on a PheraStar. Results were calculated as ratio of pEGFR/total EGFR and then percentage of 0 uM control.

Test [5] has as its target T3, Phospho-EGFR (Tyr1068) in A431 cells (Homo sapiens, UniProt P00533).
T3 construct: endogenous in cells; host or cells: A431
The test is described as follows: HTRF pEGFR/total EGFR assay in A431 cells (EGF stimulated). It is filed as cell-based. The settings on record: compound 2.5 hours then 100 ng/ml EGF 30 mins, ratio pEGFR/total EGFR. As to the method: Cells were plated at 20,000 cells per well in 96 well plates and placed at 37° C. 5% CO2. Once adhered (after 24h) cells were treated with compounds dissolved in DMSO at a final concentration of 0.1% DMSO in media. Compounds were diluted in media then added to cells for 2.5 hours in duplicate, 100 ng/ml EGF (ThermoFisher, PHG0311 was is added to all compound treated cells as well as a control for 30 mins. Compound and media were removed from the cells, then 50ul of HTRF lysis bufferwas added (lysis bufferwas diluted from 4× stock to 1× in DI water, with 1% blocking agent also added). Cells were lysed on a plate shaker (2000 rpm) for 30 minutes at room temperature. pEGFR expression was monitored using the Cisbio Phospho-EGFR (Tyr1068) cellular kit (64EG1PEH). Total EGFR expression was monitored using the Cisbio Total EGFR cellular kit (64NG1PEH) as per manufacturer's instructions. Fluorescence emission was read at two different wavelengths (665 nm and 620 nm) on a PheraStar. Results were calculated as ratio of pEGFR/total EGFR and then percentage of OuM control.

T2 sequence (P00533 25-1210 T790M/C797S/L858R): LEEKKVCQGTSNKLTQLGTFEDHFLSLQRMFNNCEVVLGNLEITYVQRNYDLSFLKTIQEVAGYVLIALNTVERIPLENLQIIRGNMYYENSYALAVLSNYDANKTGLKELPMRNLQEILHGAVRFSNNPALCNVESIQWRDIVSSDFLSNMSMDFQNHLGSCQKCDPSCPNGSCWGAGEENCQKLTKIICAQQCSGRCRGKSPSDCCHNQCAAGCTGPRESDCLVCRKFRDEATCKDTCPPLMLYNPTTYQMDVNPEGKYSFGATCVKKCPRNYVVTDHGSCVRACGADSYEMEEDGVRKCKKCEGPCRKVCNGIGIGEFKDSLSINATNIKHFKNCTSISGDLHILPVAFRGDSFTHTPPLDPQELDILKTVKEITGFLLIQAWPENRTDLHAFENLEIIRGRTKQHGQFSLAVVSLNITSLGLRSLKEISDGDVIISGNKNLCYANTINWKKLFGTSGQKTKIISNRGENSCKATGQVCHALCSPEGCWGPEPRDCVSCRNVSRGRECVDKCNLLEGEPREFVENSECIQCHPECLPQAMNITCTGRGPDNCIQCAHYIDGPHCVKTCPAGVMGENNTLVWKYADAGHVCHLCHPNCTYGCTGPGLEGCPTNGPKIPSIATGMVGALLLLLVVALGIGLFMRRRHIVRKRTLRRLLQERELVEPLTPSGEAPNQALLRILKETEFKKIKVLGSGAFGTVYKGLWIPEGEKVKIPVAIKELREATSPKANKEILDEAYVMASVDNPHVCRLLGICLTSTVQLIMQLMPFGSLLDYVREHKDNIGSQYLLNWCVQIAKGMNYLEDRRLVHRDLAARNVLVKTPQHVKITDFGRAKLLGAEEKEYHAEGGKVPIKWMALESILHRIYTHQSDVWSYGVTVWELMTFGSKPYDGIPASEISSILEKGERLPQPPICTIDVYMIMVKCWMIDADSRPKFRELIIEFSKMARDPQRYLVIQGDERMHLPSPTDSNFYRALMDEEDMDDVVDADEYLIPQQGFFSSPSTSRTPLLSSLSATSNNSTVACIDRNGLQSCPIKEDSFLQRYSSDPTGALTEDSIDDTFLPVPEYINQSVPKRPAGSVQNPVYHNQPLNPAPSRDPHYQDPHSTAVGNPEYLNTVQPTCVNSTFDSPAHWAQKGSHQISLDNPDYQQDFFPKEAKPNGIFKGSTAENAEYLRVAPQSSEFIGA
Chain of CtermHisTag-mEGFR Triple Mutant - C797S, L858R, T790M (P00533 25-1210 T790M/C797S/L858R): as above
T1 sequence (P00533 25-1210 T790M/L858R): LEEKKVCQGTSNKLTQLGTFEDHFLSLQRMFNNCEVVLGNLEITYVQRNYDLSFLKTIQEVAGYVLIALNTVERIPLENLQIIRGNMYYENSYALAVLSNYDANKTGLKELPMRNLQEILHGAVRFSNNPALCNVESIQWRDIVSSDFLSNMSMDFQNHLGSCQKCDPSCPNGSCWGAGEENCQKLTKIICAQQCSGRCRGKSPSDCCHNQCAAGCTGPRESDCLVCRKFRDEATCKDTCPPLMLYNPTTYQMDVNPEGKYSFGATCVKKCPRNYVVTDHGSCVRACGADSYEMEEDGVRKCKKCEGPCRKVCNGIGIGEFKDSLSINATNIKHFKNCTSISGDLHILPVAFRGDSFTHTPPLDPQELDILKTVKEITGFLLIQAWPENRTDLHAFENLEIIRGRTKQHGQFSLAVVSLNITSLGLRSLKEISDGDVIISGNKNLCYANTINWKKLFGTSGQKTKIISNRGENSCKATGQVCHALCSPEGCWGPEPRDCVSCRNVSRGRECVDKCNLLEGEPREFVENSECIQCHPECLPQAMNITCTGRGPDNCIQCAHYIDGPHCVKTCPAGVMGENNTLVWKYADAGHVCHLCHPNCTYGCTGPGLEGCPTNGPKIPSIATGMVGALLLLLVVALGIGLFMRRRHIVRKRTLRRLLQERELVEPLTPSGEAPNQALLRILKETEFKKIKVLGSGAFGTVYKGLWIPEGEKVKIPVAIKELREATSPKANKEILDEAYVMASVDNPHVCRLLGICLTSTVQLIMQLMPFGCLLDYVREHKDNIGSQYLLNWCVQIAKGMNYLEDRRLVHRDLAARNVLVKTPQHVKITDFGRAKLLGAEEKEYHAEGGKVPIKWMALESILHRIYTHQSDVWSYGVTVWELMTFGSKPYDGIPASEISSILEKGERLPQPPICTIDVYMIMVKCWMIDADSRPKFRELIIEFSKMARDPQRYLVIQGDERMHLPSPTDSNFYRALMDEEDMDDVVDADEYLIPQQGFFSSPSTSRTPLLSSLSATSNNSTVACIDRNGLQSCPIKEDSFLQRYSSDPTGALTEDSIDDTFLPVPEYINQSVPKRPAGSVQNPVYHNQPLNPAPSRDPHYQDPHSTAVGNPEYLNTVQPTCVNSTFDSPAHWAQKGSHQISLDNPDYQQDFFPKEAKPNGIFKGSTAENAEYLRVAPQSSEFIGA
Chain of CtermHisTag-mEGFR Wild type (P00533 25-1210): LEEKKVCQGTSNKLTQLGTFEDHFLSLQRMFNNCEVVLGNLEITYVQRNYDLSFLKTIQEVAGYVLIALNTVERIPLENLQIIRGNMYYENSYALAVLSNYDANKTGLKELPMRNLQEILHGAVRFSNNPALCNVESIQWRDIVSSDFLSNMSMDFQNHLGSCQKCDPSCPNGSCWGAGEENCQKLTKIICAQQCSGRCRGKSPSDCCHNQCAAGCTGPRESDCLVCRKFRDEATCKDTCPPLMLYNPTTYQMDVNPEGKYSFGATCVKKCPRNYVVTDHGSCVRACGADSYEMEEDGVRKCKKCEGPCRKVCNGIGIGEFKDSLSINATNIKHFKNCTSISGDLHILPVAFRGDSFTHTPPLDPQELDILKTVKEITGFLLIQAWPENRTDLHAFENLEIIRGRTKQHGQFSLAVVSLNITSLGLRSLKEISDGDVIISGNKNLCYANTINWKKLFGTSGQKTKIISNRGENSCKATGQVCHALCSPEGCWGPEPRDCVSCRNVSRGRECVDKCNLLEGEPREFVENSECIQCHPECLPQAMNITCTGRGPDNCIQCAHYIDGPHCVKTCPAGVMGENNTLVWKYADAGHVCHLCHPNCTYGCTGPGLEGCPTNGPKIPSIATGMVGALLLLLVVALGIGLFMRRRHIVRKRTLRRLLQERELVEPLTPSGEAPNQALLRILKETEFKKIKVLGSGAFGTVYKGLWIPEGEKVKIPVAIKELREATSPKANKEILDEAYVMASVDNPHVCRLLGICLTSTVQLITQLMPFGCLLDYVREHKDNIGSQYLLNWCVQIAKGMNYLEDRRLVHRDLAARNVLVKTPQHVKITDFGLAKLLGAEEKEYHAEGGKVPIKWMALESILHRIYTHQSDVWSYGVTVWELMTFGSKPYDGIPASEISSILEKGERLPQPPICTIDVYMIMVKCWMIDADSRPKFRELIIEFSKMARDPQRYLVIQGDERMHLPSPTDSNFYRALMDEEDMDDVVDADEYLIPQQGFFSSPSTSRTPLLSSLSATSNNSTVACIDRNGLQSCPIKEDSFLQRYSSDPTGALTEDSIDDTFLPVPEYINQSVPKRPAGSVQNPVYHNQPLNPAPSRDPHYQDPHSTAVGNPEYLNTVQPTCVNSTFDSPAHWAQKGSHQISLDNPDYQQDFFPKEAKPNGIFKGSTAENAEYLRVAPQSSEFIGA

`C#Cc1cc(N2C(=O)N(C)CC23CCCC3)nc2nc(Nc3ccc(S(=O)(=O)N(C)C)cc3)ncc12` [Example 109, 4-[(5-Ethynyl-7-{3-methyl-2-oxo-1,3-diazaspiro[4.4]nonan-1-yl}pyrido[2,3-d]pyrimidin-2-yl)amino]-N,N-dimethylbenzenesulfonamide]: the IC50 – broadly, the concentration that gives 50% inhibition – in test [1] was 100 to 1000 nM; in test [2], more than 10000 nM; in test [3], more than 3000 nM; in test [4], more than 3000 nM; in test [5], 1000 to 3000 nM.

Turning to `C#Cc1cc(NC(=O)NC2CCCC2)nc2nc(Nc3ccc(N(C)C(C)=O)cc3)ncc12` [Example 77, N-[4-((7-[(Cyclopentylcarbamoyl)amino]-5-ethynyl)pyrido[2,3-d]pyrimidin-2-ylamino)phenyl]-N-methylacetamide], the IC50 was less than 20 nM in test [1]; less than 1000 nM in test [2]; 500 to 1000 nM in test [3]; more than 3000 nM in test [4]; more than 3000 nM in test [5].

For `C#Cc1cc(N(C)C(=O)NC2CCCC2)nc2nc(Nc3ccc(N4CCN(C)CC4)cc3)ncc12` [Example 73, 3-Cyclopentyl-1-(5-ethynyl-2-{[4-(4-methylpiperazin-1-yl)phenyl]amino}pyrido[2,3-d]pyrimidin-7-yl)-1-methylurea], the IC50 was less than 20 nM in test [1]; less than 1000 nM in test [2]; less than 500 nM in test [3]; less than 500 nM in test [4]; more than 3000 nM in test [5].

Regarding `C#Cc1cc(NC(=O)NC2CCCC2)nc2nc(Nc3ccc(S(=O)(=O)N(C)C)cc3)ncc12` [Example 82, 3-Cyclopentyl-1-(2-([4-(dimethylsulfamoyl)phenyl]amino-5-ethynyl)pyrido[2,3-d]pyrimidin-7-yl)urea], the IC50 in test [1] was less than 20 nM; in test [2], more than 10000 nM; in test [3], more than 3000 nM; in test [4], more than 3000 nM; in test [5], more than 3000 nM.

Take `C#Cc1cc(N2C(=O)NCC23CCCC3)nc2nc(Nc3ccc(N4CCN(C5COC5)CC4)cc3)ncc12` [Example 92, 1-[5-Ethynyl-2-({4-[4-(oxetan-3-yl)piperazin-1-yl]phenyl}amino)pyrido[2,3-d]pyrimidin-7-yl]-1,3-diazaspiro[4.4]nonan-2-one]: the IC50 was less than 20 nM in test [1]; less than 1000 nM in test [2]; 500 to 1000 nM in test [3]; 1000 to 3000 nM in test [4]; 1000 to 3000 nM in test [5].

Turning to `C#Cc1cc(N2CCOC2=O)nc2nc(Nc3ccc(N4CCN(C)CC4)cc3)ncc12` [Example 71, 3-(5-ethynyl-2-{[4-(4-methylpiperazin-1-yl)phenyl]amino}pyrido[2,3-d]pyrimidin-7-yl)-1,3-oxazolidin-2-one], the IC50 was less than 20 nM in test [1]; less than 1000 nM in test [2]; 1000 to 3000 nM in test [3]; more than 3000 nM in test [4]; 1000 to 3000 nM in test [5].

Turning to `C#Cc1cc(NC(=O)NC2CCCC2)nc2nc(Nc3cccc4c3CCN(C)C4)ncc12` [Example 88, 3-Cyclopentyl-1-{5-ethynyl-2-[(2-methyl-3,4-dihydro-1H-isoquinolin-5-yl)amino]pyrido[2,3-d]pyrimidin-7-yl}urea], the IC50 in test [1] is 100 to 1000 nM; in test [2], more than 10000 nM; in test [3], more than 3000 nM; in test [4], more than 3000 nM; in test [5], more than 3000 nM.

In the case of `C#Cc1cc(NC(=O)NC2CC2)nc2nc(Nc3ccc(N4CCN(C)CC4)cc3)ncc12` [Example 44, 3-cyclopropyl-1-(5-ethynyl-2-{[4-(4-methylpiperazin-1-yl)phenyl]amino}pyrido[2,3-d]pyrimidin-7-yl)urea], the IC50 is less than 20 nM in test [1]; less than 1000 nM in test [2]; less than 500 nM in test [3]; less than 500 nM in test [4]; 1000 to 3000 nM in test [5].

On to `C#Cc1cc(N2C(=O)OC[C@H]2C(C)C)nc2nc(Nc3ccc(N4CCN(C)CC4)cc3)ncc12` [Example 69, (4R)-3-(5-ethynyl-2-{[4-(4-methylpiperazin-1-yl)phenyl]amino}pyrido[2,3-d]pyrimidin-7-yl)-4-isopropyl-1,3-oxazolidin-2-one], for which the IC50 in test [1] is less than 20 nM; in test [2], more than 10000 nM; in test [3], 500 to 1000 nM; in test [4], 500 to 1000 nM; in test [5], more than 3000 nM.

As for `C#Cc1cc(OC)nc2nc(Nc3cccc(CN(C)C)c3)ncc12` [Example 9, N-{3-[(dimethylamino)methyl]phenyl}-5-ethynyl-7-methoxypyrido[2,3-d] pyrimidin-2-amine], the IC50 in test [1] was 100 to 1000 nM; in test [2], more than 10000 nM; in test [3] it was more than 3000 nM; in test [4] it was more than 3000 nM; in test [5], more than 3000 nM.

With `C#Cc1cc(NC(=O)NC2CCCC2)nc2nc(Nc3cccc(CN4CC(CS(C)(=O)=O)C4)c3)ncc12` [Example 85], the IC50 in test [1] is 20 to 100 nM; in test [2] it was less than 1000 nM; in test [3], more than 3000 nM; in test [4], less than 500 nM; in test [5], 1000 to 3000 nM.

`C#Cc1cc(OC)nc2nc(Nc3ccc(N4CCN(C)CC4)c(NC4CCC4)c3)ncc12` [Example 8, N^3-cyclobutyl-N^1-{5-ethynyl-7-methoxypyrido[2,3-d]pyrimidin-2-yl}-4-(4-methylpiperazin-1-yl)benzene-1,3-diamine]: the IC50 in test [1] is 20 to 100 nM; in test [2], 1000 to 10000 nM; in test [3], 1000 to 3000 nM; in test [4], more than 3000 nM; in test [5], more than 3000 nM.

Regarding `C#Cc1cc(N2CC(C(C)C)OC2=O)nc2nc(Nc3ccc(N4CCN(C)CC4)cc3)ncc12` (stereo not shown) [Example 113, 3-(5-Ethynyl-2-{[4-(4-methylpiperazin-1-yl)phenyl]amino}pyrido[2,3-d]pyrimidin-7-yl)-5-isopropyl-1.3-oxazolidin-2-one], the IC50 in test [1] was 20 to 100 nM; in test [2], more than 10000 nM; in test [3], 500 to 1000 nM; in test [4] it was 1000 to 3000 nM; in test [5] it was more than 3000 nM.

In the case of `C#Cc1cc(OC(C)C)nc2nc(Nc3ccc(N4CCN(C)CC4)cc3)ncc12` [Example 17, 5-ethynyl-7-isopropoxy-N-[4-(4-methylpiperazin-1-yl)phenyl]pyrido[2,3-d]pyrimidin-2-amine], the IC50 was 100 to 1000 nM in test [1]; more than 10000 nM in test [2]; 1000 to 3000 nM in test [3]; 1000 to 3000 nM in test [4]; more than 3000 nM in test [5].
